In PubChem BioAssay AID342 (DTP/NCI, 2004):
Values joined by “and” are separate entries in the source; they are usually repeats but may differ in a detail not shown here. Equal values may be shown once.

Test system: Swiss mice, Sarcoma 180 sc, mean tumor weight T/C
Test: NCI In Vivo Anticancer Drug Screen. Data for tumor model Sarcoma 180 (subcutaneous) in Swiss mice
Details: endpoint: mean tumor weight, higher = larger tumour
Summary of the method: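 Transplantable tumors were established in mice, compound was given, then survival or tumor size was recorded. The treated value was divided by the vehicle-control value.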

[1] = dose: 50.0 mg/kg/injection, schedule: Q01DX007 (ip), vehicle: carboxymethylcellulose (CMC)
[2] = dose: 100.0 mg/kg/injection, schedule: Q01DX007 (ip), vehicle: carboxymethylcellulose (CMC)
[3] = dose: 50.0 mg/kg/injection, schedule: Q#A X014 (sc), vehicle: steriod suspending solution
[4] = dose: 62.5 mg/kg/injection, schedule: Q#A X014 (ip), vehicle: methylcellulose (MC)
[5] = dose: 125.0 mg/kg/injection, schedule: Q01DX007 (ip), vehicle: carboxymethylcellulose (CMC)
[6] = dose: 500.0 mg/kg/injection, schedule: Q01DX007 (ip), vehicle: carboxymethylcellulose (CMC)

## COc1ccc2c3c([nH]c2c1)[C@H]1C[C@H]2[C@H](C[C@@H](O)[C@H](OC)[C@H]2CO)CN1CC3
dose: 0.5 mg/kg/injection, schedule: Q01DX007 (ip), vehicle: saline
  T/C: 120 % of control
dose: 1.0 mg/kg/injection, schedule: Q01DX007 (ip), vehicle: saline
  T/C: 121 % of control
dose: 2.0 mg/kg/injection, schedule: Q01DX007 (ip), vehicle: saline
  T/C: 95 % of control
dose: 4.0 mg/kg/injection, schedule: Q01DX007 (ip), vehicle: saline
  T/C: 94 % of control
dose: 8.0 mg/kg/injection, schedule: Q01DX007 (ip), vehicle: saline
  T/C: 102 % of control
dose: 16.0 mg/kg/injection, schedule: Q01DX007 (ip), vehicle: saline
  T/C: 77 % of control
dose: 32.0 mg/kg/injection, schedule: Q01DX007 (ip), vehicle: saline
  T/C: 102 % of control

## CN(N=O)C(=O)Nc1c[nH]c(=O)[nH]c1=O
dose: 25.0 mg/kg/injection, schedule: Q#A X014 (ip), vehicle: carboxymethylcellulose (CMC)
  T/C: 33 % of control

## CCCCCN(C)/N=N/c1nc[nH]c1C(N)=O
[1]
  T/C: 41 % of control and 51 % of control
dose: 75.0 mg/kg/injection, schedule: Q01DX007 (ip), vehicle: carboxymethylcellulose (CMC)
  T/C: 23 % of control and 36 % of control
[2]
  T/C: 24 % of control

## CCC(c1ccc(O)cc1)C(CC)c1ccc(OC)cc1 (stereo unspecified)
dose: 2.0 mg/kg/injection, schedule: Q#A X014 (sc), vehicle: steriod suspending solution
  T/C: 45 % of control and 53 % of control
dose: 2.35 mg/kg/injection, schedule: Q#A X014 (ip), vehicle: methylcellulose (MC)
  T/C: 25 % of control
dose: 3.5 mg/kg/injection, schedule: Q#A X014 (ip), vehicle: methylcellulose (MC)
  T/C: 32 % of control
dose: 5.0 mg/kg/injection, schedule: Q#A X014 (ip), vehicle: methylcellulose (MC)
  T/C: 40 % of control
dose: 5.5 mg/kg/injection, schedule: Q#A X014 (sc), vehicle: steriod suspending solution
  T/C: 39 % of control and 52 % of control
dose: 7.5 mg/kg/injection, schedule: Q#A X014 (ip), vehicle: methylcellulose (MC)
  T/C: 41 % of control
dose: 8.5 mg/kg/injection, schedule: Q#A X014 (ip), vehicle: distilled water + alcohol
  T/C: 15 % of control
dose: 12.5 mg/kg/injection, schedule: Q#A X014 (ip), vehicle: distilled water + alcohol
  T/C: 27 % of control
dose: 16.5 mg/kg/injection, schedule: Q#A X014 (sc), vehicle: steriod suspending solution
  T/C: 35 % of control and 48 % of control
dose: 18.5 mg/kg/injection, schedule: Q#A X014 (ip), vehicle: distilled water + alcohol
  T/C: 12 % of control
dose: 27.5 mg/kg/injection, schedule: Q#A X014 (ip), vehicle: distilled water + alcohol
  T/C: 19 % of control
dose: 27.5 mg/kg/injection, schedule: Q#A X014 (ip), vehicle: olive oil, sesame oil, peanut oil
  T/C: 49 % of control
dose: 27.75 mg/kg/injection, schedule: Q#A X014 (ip), vehicle: methylcellulose (MC)
  T/C: 24 % of control and 46 % of control
dose: 41.5 mg/kg/injection, schedule: Q#A X014 (ip), vehicle: olive oil, sesame oil, peanut oil
  T/C: 48 % of control
dose: 41.65 mg/kg/injection, schedule: Q#A X014 (ip), vehicle: methylcellulose (MC)
  T/C: 20 % of control and 24 % of control
[3]
  T/C: 33 % of control and 36 % of control
[4]
  T/C: 20 % of control and 32 % of control
dose: 62.5 mg/kg/injection, schedule: Q#A X014 (ip), vehicle: olive oil, sesame oil, peanut oil
  T/C: 69 % of control
dose: 94.0 mg/kg/injection, schedule: Q#A X014 (ip), vehicle: methylcellulose (MC)
  T/C: 28 % of control and 36 % of control
dose: 94.0 mg/kg/injection, schedule: Q#A X014 (ip), vehicle: olive oil, sesame oil, peanut oil
  T/C: 42 % of control
dose: 150.0 mg/kg/injection, schedule: Q#A X014 (sc), vehicle: steriod suspending solution
  T/C: 29 % of control and 44 % of control

## O=P(N1CCCCCC1)(N1CC1)N1CC1
dose: 1.0 mg/kg/injection, schedule: Q#A X014 (ip), vehicle: methylcellulose (MC)
  T/C: 91 % of control
dose: 1.0 mg/kg/injection, schedule: Q#A X014 (ip), vehicle: saline
  T/C: 120 % of control
dose: 1.5 mg/kg/injection, schedule: Q#A X014 (ip), vehicle: methylcellulose (MC)
  T/C: 86 % of control
dose: 1.5 mg/kg/injection, schedule: Q#A X014 (ip), vehicle: saline
  T/C: 103 % of control
dose: 2.0 mg/kg/injection, schedule: Q#A X014 (ip), vehicle: methylcellulose (MC)
  T/C: 65 % of control
dose: 2.0 mg/kg/injection, schedule: Q#A X014 (ip), vehicle: saline
  T/C: 88 % of control
dose: 3.0 mg/kg/injection, schedule: Q#A X014 (ip), vehicle: methylcellulose (MC)
  T/C: 61 % of control
dose: 3.0 mg/kg/injection, schedule: Q#A X014 (ip), vehicle: saline
  T/C: 70 % of control

## O=C1N(Cl)C(=O)C(c2ccccc2)(c2ccc(F)cc2)N1Cl (stereo unspecified)
dose: 17.5 mg/kg/injection, schedule: Q#A X014 (ip), vehicle: methylcellulose (MC)
  T/C: 121 % of control
dose: 42.5 mg/kg/injection, schedule: Q#A X014 (ip), vehicle: methylcellulose (MC)
  T/C: 88 % of control
[4]
  T/C: 75 % of control

## Cc1cc2nc3c(=O)[nH]c(=O)nc-3n(CCO)c2cc1C
dose: 60.0 mg/kg/injection, schedule: Q#A X014 (ip), vehicle: carboxymethylcellulose (CMC)
  T/C: 78 % of control
dose: 120.0 mg/kg/injection, schedule: Q#A X014 (ip), vehicle: carboxymethylcellulose (CMC)
  T/C: 77 % of control
dose: 240.0 mg/kg/injection, schedule: Q#A X014 (ip), vehicle: carboxymethylcellulose (CMC)
  T/C: 76 % of control
dose: 384.0 mg/kg/injection, schedule: Q01DX007 (ip), vehicle: carboxymethylcellulose (CMC)
  T/C: 61 % of control
dose: 480.0 mg/kg/injection, schedule: Q01DX007 (ip), vehicle: carboxymethylcellulose (CMC)
  T/C: 62 % of control
dose: 480.0 mg/kg/injection, schedule: Q#A X014 (ip), vehicle: carboxymethylcellulose (CMC)
  T/C: 40 % of control
dose: 640.0 mg/kg/injection, schedule: Q01DX007 (ip), vehicle: carboxymethylcellulose (CMC)
  T/C: 82 % of control
dose: 960.0 mg/kg/injection, schedule: Q01DX007 (ip), vehicle: carboxymethylcellulose (CMC)
  T/C: 66 % of control

## OCCOCC(F)(F)F
dose: 125.0 mg/kg/injection, schedule: Q01DX007 (ip), vehicle: saline
  T/C: 100 % of control
dose: 250.0 mg/kg/injection, schedule: Q01DX007 (ip), vehicle: saline
  T/C: 101 % of control
dose: 500.0 mg/kg/injection, schedule: Q01DX007 (ip), vehicle: saline
  T/C: 63 % of control

## C[C@]1(O)CC[C@H]2[C@@H]3CCc4cc(O)ccc4[C@H]3CC[C@@]21C
dose: 0.5 mg/kg/injection, schedule: Q#A X014 (sc), vehicle: steriod suspending solution
  T/C: 115 % of control
dose: 5.0 mg/kg/injection, schedule: Q#A X014 (sc), vehicle: steriod suspending solution
  T/C: 103 % of control
[3]
  T/C: 74 % of control

## Cc1nc(C(N)=O)nc2ccccc12
[4]
  T/C: 64 % of control and 81 % of control
dose: 200.0 mg/kg/injection, schedule: Q01DX007 (ip), vehicle: carboxymethylcellulose (CMC)
  T/C: 64 % of control and 65 % of control
dose: 250.0 mg/kg/injection, schedule: Q#A X014 (ip), vehicle: methylcellulose (MC)
  T/C: 36 % of control

## CS(=O)(=O)OCC(O)C(O)COS(C)(=O)=O (stereo unspecified)
[5]
  T/C: 74 % of control
dose: 250.0 mg/kg/injection, schedule: Q01DX007 (ip), vehicle: carboxymethylcellulose (CMC)
  T/C: 65 % of control
[6]
  T/C: 51 % of control
dose: 1000.0 mg/kg/injection, schedule: Q01DX007 (ip), vehicle: carboxymethylcellulose (CMC)
  T/C: 45 % of control

## CN(C)c1ccc2c(c1)Cc1cc(N=C3C=CC(=O)O3)ccc1-2
dose: 48.0 mg/kg/injection, schedule: Q01DX007 (ip), vehicle: other
  T/C: 83 % of control
dose: 73.0 mg/kg/injection, schedule: Q01DX007 (ip), vehicle: other
  T/C: 101 % of control
dose: 166.0 mg/kg/injection, schedule: Q01DX007 (ip), vehicle: other
  T/C: 40 % of control and 65 % of control

## CC(=O)N(C)C
dose: 62.0 mg/kg/injection, schedule: Q01DX007 (ip), vehicle: carboxymethylcellulose (CMC)
  T/C: 100 % of control
[5]
  T/C: 95 % of control
[6]
  T/C: 65 % of control
dose: 750.0 mg/kg/injection, schedule: Q01DX007 (ip), vehicle: saline
  T/C: 104 % of control
dose: 1000.0 mg/kg/injection, schedule: Q01DX007 (ip), vehicle: saline
  T/C: 70 % of control

## CCOc1ccc2nc(S(N)(=O)=O)sc2c1
dose: 25.0 mg/kg/injection, schedule: Q01DX007 (ip), vehicle: carboxymethylcellulose (CMC)
  T/C: 78 % of control
dose: 29.0 mg/kg/injection, schedule: Q01DX007 (ip), vehicle: carboxymethylcellulose (CMC)
  T/C: 70 % of control
dose: 44.0 mg/kg/injection, schedule: Q01DX007 (ip), vehicle: carboxymethylcellulose (CMC)
  T/C: 22 % of control
dose: 49.5 mg/kg/injection, schedule: Q#A X014 (ip), vehicle: methylcellulose (MC)
  T/C: 29 % of control and 48 % of control
[1]
  T/C: 39 % of control
dose: 66.0 mg/kg/injection, schedule: Q01DX007 (ip), vehicle: carboxymethylcellulose (CMC)
  T/C: 51 % of control
dose: 74.0 mg/kg/injection, schedule: Q#A X014 (ip), vehicle: methylcellulose (MC)
  T/C: 13 % of control and 22 % of control
dose: 99.0 mg/kg/injection, schedule: Q01DX007 (ip), vehicle: carboxymethylcellulose (CMC)
  T/C: 43 % of control
[2]
  T/C: 34 % of control
